The results in this text go back to patent publication US12338484B2, “FRET biosensor for detecting and reporting NAD+/NADH ratio changes” (Sartorius BioAnalytical Instruments, Inc., priority 2022, dated 2025).

Structures are written as SMILES.

Assay type in all cases: biochemical
Holding throughout (parameters): key: Good response: Constructs with very clear and robust spectra separation; Poor response: those with noticeable but small spectra separation; No response: those having no spectra separation

Assay [1] deals with Thermus aquaticus T-Rex FRET fusion, initial construct #15, mEGFP-Rex(A)-mKOk-Rex(B), SEQ ID NO: 175 (Thermus aquaticus, UniProt Q9X2V5, E116G/F189I/K117M/K204T/K47E/R46D/R58D/S30A/Y98W). Nature of the assay: FRET response (emission spectra) of purified initial construct #15 in absence or presence of 40 uM NADH. The procedure: (§1) 16 initial FRET constructs (See Table 3) were constructed using expression vector pET28c with a T7 promoter and lac operator and expressed in E. coli. Cells were collected and lysed using a commercially-available lysis buffer. Proteins of interest were isolated from the lysates using Ni-NTA magnetic beads. Eluted proteins were subjected to buffer exchange and final protein concentrating. To test performance of the initial FRET constructs, their emission spectra was recorded on a plate reader in absence or presence of 40 uM NADH. Resulting emission spectra with or without the ligand were normalized and overlaid for each construct. Constructs with very clear and robust spectra separation were labeled as having “good response”, those with noticeable but small spectra separation were labeled as having “poor response”, and finally those having no spectra separation were labeled as having “no response”.

Assay [2] has as its target T1, Thermus aquaticus T-Rex FRET fusion, initial construct #4, Rex(78-211)-Rex(78-189)-cpmEGFP(145/146)-Rex(190-211)-mKOk, SEQ ID NO: 164 (Thermus aquaticus, UniProt Q9X2V5, INS189[…]).
T1 construct: His-tag purified from E. coli
In words: FRET response (emission spectra) of purified initial construct #4 in absence or presence of 40 uM NADH. The procedure:
as §1

In assay [3] the target is T2, Thermus aquaticus T-Rex FRET fusion, initial construct #2, Rex(78-189)-cpmEGFP(145/146)-Rex(190-211)-Rex(78-211)-mKOk, SEQ ID NO: 162 (Thermus aquaticus, UniProt Q9X2V5, INS189[…]).
T2 construct: His-tag purified from E. coli
In words: FRET response (emission spectra) of purified initial construct #2 in absence or presence of 40 uM NADH. The procedure: as §1

`NC(=O)C1=CN([C@@H]2O[C@H](COP(=O)(O)OP(=O)(O)OC[C@H]3O[C@@H](n4cnc5c(N)ncnc54)[C@H](O)[C@@H]3O)[C@@H](O)[C@H]2O)C=CC1` [NADH]: the “FRET response to NADH” value in assay [1] is “No response”; in assay [2], “No response”; in assay [3] it was “Poor response”.
